What all share (details): 50 nM enzyme; BAEE 0.04-0.2 mg/ml; 37°C; native glycosylated enzyme
The subject of experiment [1] is RV-FVPδ.
Experiment [2] concerns RV-FVPα. It is filed as biochemical, Daboia russelii.
The subject of experiment [3] is RV-FVPγ.
For experiment [4], the system named is RV-FVPβ.

The structures appear in SMILES notation.

As for `CCOC(=O)[C@H](CCCNC(=N)N)NC(=O)c1ccccc1` [BAEE], the Michaelis constant (Km) (as a rule, the substrate concentration at which the rate is half of its maximum) was 0.159 mg/mL in experiment [1], 0.143 mg/mL in experiment [2], 0.159 mg/mL in experiment [3] and 0.156 mg/mL in experiment [4].
